The results in this text go back to patent US12384789B2, “Compounds for treating Huntington's disease” (PTC Therapeutics, Inc., priority 2017, dated 2025).

pIC50: −log10 of the molar value.

The assay relates to Endogenous Huntingtin Protein. Description: Endogenous Huntingtin Protein Assay (Meso Scale Discovery ELISA-based electrochemiluminescence). The assay is classed as cell-based. As to conditions: MSD electrochemiluminescence, Table 1. In short, it runs like this:
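MSD electrochemiluminescence sandwich ELISA: MW1 (expanded polyQ) or MAB2166 capture antibody at 1 μg/mL, samples incubated overnight at 4° C. Detection with rabbit monoclonal #5656S then SULFO-TAG anti-rabbit antibody, each 0.25 μg/mL for 1 h at room temperature.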
`Cc1cn2nc(-c3cc(F)c4cc(C5CCCN(CCO)CC5)nnc4c3)cc(C)c2n1` (stereo not shown) [Compound 190, 2-{4-[7-(2,8-dimethylimidazo[1,2-b]pyridazin-6-yl)-5-fluorocinnolin-3-yl]azepan-1-yl}ethan-1-ol] had a pIC50 of at least 7.00.

`Cc1cn2nc(-c3nnc4cc(C5CCNCC5)cc(F)c4n3)cc(C)c2n1` [Compound 57, 3-(2,8-dimethylimidazo[1,2-b]pyridazin-6-yl)-5-fluoro-7-(piperidin-4-yl)-1,2,4-benzotriazine] showed a pIC50 of at least 7.00.

Compound `Cc1cn2nc(-c3cc(F)c4cc(C5CCN(C(C)C)CC5)nnc4c3)cc(C)c2n1` [Compound 78, 7-(2,8-dimethylimidazo[1,2-b]pyridazin-6-yl)-5-fluoro-3-[1-(propan-2-yl)piperidin-4-yl]cinnoline] showed a pIC50 of at least 7.00.

With `Cc1cc(-c2cc(F)c3cc(C4CCNCC4)ncc3c2)cc2cn(C)nc12` [Compound 71, 7-(2,7-dimethyl-2H-indazol-5-yl)-5-fluoro-3-(piperidin-4-yl)isoquinoline], the pIC50 is at least 7.00.

Turning to `Cn1cc2cc(-c3cc(F)c4cc(C5CCNCC5)nnc4c3)c(F)cc2n1` [Compound 97, 5-fluoro-7-(6-fluoro-2-methyl-2H-indazol-5-yl)-3-(piperidin-4-yl)cinnoline], the pIC50 was 6.00 to 6.30.

Take `Cc1cn2cc(-c3cc(F)c4cc(C5CCNCC5)nnc4c3)cc(F)c2n1` [Compound 92, 5-fluoro-7-(8-fluoro-2-methylimidazo[1,2-a]pyridin-6-yl)-3-(piperidin-4-yl)cinnoline]: the pIC50 is at least 7.00.

`Cn1cc2cc(-c3cc4c(F)cc(C5=CCNCC5)cc4nn3)cc(F)c2n1` [Compound 134, 5-fluoro-3-(7-fluoro-2-methyl-2H-indazol-5-yl)-7-(1,2,3,6-tetrahydropyridin-4-yl)cinnoline] gave a pIC50 of at least 7.00.

Take `Cc1cn2nc(-c3cc(F)c4cc(C5CCNCC5)ncc4c3)cc(C)c2n1` [Compound 72, 7-(2,8-dimethylimidazo[1,2-b]pyridazin-6-yl)-5-fluoro-3-(piperidin-4-yl)isoquinoline]: the pIC50 was at least 7.00.

In turn, `Cc1cn2cc(-c3cc(F)c4nc(C5CCNCC5)nnc4c3)cc(F)c2n1` [Compound 58, 5-fluoro-7-(8-fluoro-2-methylimidazo[1,2-a]pyridin-6-yl)-3-(piperidin-4-yl)-1,2,4-benzotriazine] had a pIC50 of at least 7.00.

In turn, `Cc1cn2nc(-c3cc(F)c4nc(C5CCNCC5)nnc4c3)cc(C)c2n1` [Compound 46, 7-(2,8-dimethylimidazo[1,2-b]pyridazin-6-yl)-5-fluoro-3-(piperidin-4-yl)-1,2,4-benzotriazine] had a pIC50 of at least 7.00.

On to `CCc1cc(-c2cc(F)c3cc(C4CCNCC4)nnc3c2)nc2cn(C)nc12` [Compound 172, 7-(7-ethyl-2-methyl-2H-pyrazolo[4,3-b]pyridin-5-yl)-5-fluoro-3-(piperidin-4-yl)cinnoline], for which the pIC50 was at least 7.00.

For `Cc1cn2nc(-c3ccc4nc(C5CCNCC5)ccc4c3)cc(C)c2n1` [Compound 19, 6-(2,8-dimethylimidazo[1,2-b]pyridazin-6-yl)-2-(piperidin-4-yl)quinoline], the pIC50 was at least 7.00.

In turn, `Cc1cn2cc(-c3cc(F)c4nc(C5CCNCC5)nnc4c3)cc(C)c2n1` [Compound 60, 7-(2,8-dimethylimidazo[1,2-a]pyridin-6-yl)-5-fluoro-3-(piperidin-4-yl)-1,2,4-benzotriazine] gave a pIC50 of 6.30 to 7.00.

Compound `COCCNc1cc(-c2cc(F)c3nc(C4CCNCC4)ccc3c2)nn2cc(C)nc12` [Compound 54, 6-[8-fluoro-2-(piperidin-4-yl)quinolin-6-yl]-N-(2-methoxyethyl)-2-methylimidazo[1,2-b]pyridazin-8-amine] had a pIC50 of 6.30 to 7.00.

For the compound `Cc1cn2nc(-c3cc(F)c4cc(N5CC6(CCCNC6)C5)nnc4c3)cc(C)c2n1` [Compound 218, 3-(2,6-diazaspiro[3.5]nonan-2-yl)-7-(2,8-dimethylimidazo[1,2-b]pyridazin-6-yl)-5-fluorocinnoline], the pIC50 is at least 7.00.

For the compound `Cc1cn2nc(-c3cc(F)c4cc(C5CCN(CCO)CC5)nnc4c3)cc(C)c2n1` [Compound 75, 2-{4-[7-(2,8-dimethylimidazo[1,2-b]pyridazin-6-yl)-5-fluorocinnolin-3-yl]piperidin-1-yl}ethanol], the pIC50 is at least 7.00.

In turn, `CCN1CCC(c2cc3ccc(-c4cc(C)c5nc(C)cn5n4)cc3nn2)CC1` [Compound 85, 7-(2,8-dimethylimidazo[1,2-b]pyridazin-6-yl)-3-(1-ethylpiperidin-4-yl)cinnoline] gave a pIC50 of 6.30 to 7.00.

`COc1cc(-c2nnc3cc(C4CCNCC4)ccc3n2)cc2cn(C)nc12` [Compound 52, 3-(7-methoxy-2-methyl-2H-indazol-5-yl)-7-(piperidin-4-yl)-1,2,4-benzotriazine]: the pIC50 is at least 7.00.

In turn, `Cc1cc(-c2cc(F)c3nc(C4CCNCC4)nnc3c2)cc2cn(C)nc12` [Compound 33, 7-(2,7-dimethyl-2H-indazol-5-yl)-5-fluoro-3-(piperidin-4-yl)-1,2,4-benzotriazine] showed a pIC50 of at least 7.00.

`CCc1cc(-c2cc(F)c3cc(C4CCN(CC)CC4)nnc3c2)nn2cc(C)nc12` [Compound 121, 7-(8-ethyl-2-methylimidazo[1,2-b]pyridazin-6-yl)-3-(1-ethylpiperidin-4-yl)-5-fluorocinnoline] gave a pIC50 of at least 7.00.

Turning to `COc1cc(-c2cc(F)c3nc(C4CCNCC4)ccc3c2)nn2cc(C)nc12` [Compound 51, 8-fluoro-6-(8-methoxy-2-methylimidazo[1,2-b]pyridazin-6-yl)-2-(piperidin-4-yl)quinoline], the pIC50 is at least 7.00.

In turn, `CCN1CCC(c2cc(F)c3nc(-c4cc(F)c5nn(C)cc5c4)ccc3c2)CC1` [Compound 193, 6-(1-ethylpiperidin-4-yl)-8-fluoro-2-(7-fluoro-2-methyl-2H-indazol-5-yl)quinoline] showed a pIC50 of at least 7.00.

Compound `Cc1cn2cc(-c3nnc4cc(C5CCNCC5)ccc4n3)cc(F)c2n1` [Compound 43, 3-(8-fluoro-2-methylimidazo[1,2-a]pyridin-6-yl)-7-(piperidin-4-yl)-1,2,4-benzotriazine] gave a pIC50 of at least 7.00.

As to `Cn1cc2cc(-c3ccc4cc(C5CCNCC5)ccc4n3)ccc2n1` [Compound 1, 2-(2-methyl-2H-indazol-5-yl)-6-(piperidin-4-yl)quinoline], the pIC50 was 5.52 to 6.00.

`Cc1cn2nc(-c3cc(F)c4cc(C5CCNC5)nnc4c3)cc(C)c2n1` (stereo not shown) [Compound 143, 7-(2,8-dimethylimidazo[1,2-b]pyridazin-6-yl)-5-fluoro-3-(pyrrolidin-3-yl)cinnoline]: the pIC50 was at least 7.00.

`Cc1cn2nc(-c3cc(F)c4cc(C5CCN(CCCN(C)C)CC5)nnc4c3)cc(C)c2n1` [Compound 158, 3-{4-[7-(2,8-dimethylimidazo[1,2-b]pyridazin-6-yl)-5-fluorocinnolin-3-yl]piperidin-1-yl}-N,N-dimethylpropan-1-amine] had a pIC50 of at least 7.00.

`Cc1cn2nc(-c3cc(F)c4cc(N5CC6(CCNC6)C5)nnc4c3)cc(C)c2n1` [Compound 217, 3-(2,6-diazaspiro[3.4]octan-2-yl)-7-(2,8-dimethylimidazo[1,2-b]pyridazin-6-yl)-5-fluorocinnoline]: the pIC50 was at least 7.00.

Turning to `Cc1cc(C2CCNCC2)nc2ccc(-c3ccc4nn(C)cc4c3)cc12` [Compound 5, 4-methyl-6-(2-methyl-2H-indazol-5-yl)-2-(piperidin-4-yl)quinoline], the pIC50 is 5.52 to 6.00.
